The test system of experiment [1] is DNA C (matricial DNA separated from cancerous tissues). In words: synthesis in vitro of DNA on a matrix of cancerous DNA (DNA C) with DNA-polymerase, radioactive acidoprecipitable DNA measured. It counts as biochemical. The settings on record: for replication of DNA-C separated from cancerous breast tissues: breast tissue DNA, FIG. 6; for replication of DNA taken on cancerous tissues such as lung or liver tissues: lung or liver tissue DNA; for replication of DNA-C (amount of radioactive DNA 3H synthetised): as a function of the amount of substance in the reactional medium (0 to 100 μg in 0.15 ml), 10 minutes at 36° C., FIG. 1, 3, 4. An excerpt:
(§1) According to the invention, there is provided a method in which there is observed, in measuring the radioactive acidoprecipitable DNA, the synthesis of DNA on a matrix of DNA separated from sound tissues on the one hand, and on a matrix of DNA separated from cancerous tissues on the other hand, in a medium comprising four desoxyribonucleoside-5'-triphosphates, one of which is radioactive, and one enzyme DNA-polymerase, with the substance to be tested and without it.
(§2) For carrying into effect the test, which in itself is very short, it is necessary to hold several preparations, previously and carefully proven, of matricial DNA separated from sound tissues (check tissue, hereinafter referenced to as DNA T) and of matricial DNA separated from cancerous tissues (hereinafter referenced to as DNA C).
The DNA C preparations are obtained by using as raw material various cancerous tissues or tumours taken on a human or animal organ, such as breast, lung, ovary, neuro-carcinome, ascites, etc. It is also possible to use cultures of cancerous cells such as KB or Hela cells, etc.
(§3) For each test, it is necessary to hold at least four couples of matricial DNA of different origins, each couple being formed by an DNA T preparation and an DNA C preparation originating from the same organ, of the same animal kind. For example, there is used at least four couples selected among the following: DNA T and DNA C separated from lung tissue; DNA T and DNA C separated from breast tissue; DNA T and DNA C separated from ovary tissue; DNA T of primary cells of monkey kidney (RS), or of "Vero" cells, or of "SIRC" cells in culture and DNA C of KB cells or Hela cells, or L cells in culture.
(§4) For separating DNA, either from sound tissues or from cancerous tissues, there is used a modified conventional method of separation and purification (J. Narmur, J. Mol. Biol. 3 208, 1961). When a cancerous tissue or a tumour is used, the neighbouring sound or questionable tissues must first be discarded, and reciprocally, the sound tissues must be free from any questionable tissues.
(§5) Immediately after exeresis, the tissue is either frozen at -20° C., or finely crushed in a kneading machine, in the presence of a buffer 2 SSC (containing 17.4 g of NaCl and 10.7 g of trisodic citrate for 1 liter of sterile distilled water) in a sterile aqueous solution (1 to 3 ml of buffer according to the volume of tissue) and of a final concentration of 0.2% in laurylsulphate (by adding an aqueous mother solution of laurylsulphate at 20%).
(§6) In order to get rid of the proteins and to keep the DNA, several extractions are made in the presence of buffer 2 SSC and phenol (solution containing 10% of water), followed by extractions with chloroform and by centrifugations according to the conventional technique of separation and purification of DNA. The DNA present in the aqueous phases is precipitated in 96° alcohol, picked up with a glass rod, solved in a little volume of 1 SSC, then treated by the pancreatic ribonucleases and T1, what requires a whole supplementary cycle of repurification with phenol, then with chloroform. The DNA is dialysed against a solution of 2 SSC (24 hours at 4° C.), dosed by absorption in ultraviolet and stored frozen at -20° C., several months if necessary. Before use, the DNA is once more dialysed during several hours against sterile distilled water.
(§7) The DNA is characterized by its absorbance in ultraviolet at 260 nm and 280 nm. The typical ratio 260/280 varies from 2.0 to 2.1 according to the preparation. The content of the ARN in proteins varies from 0.3 to 0.6% and the content in polyribonucleotids having resisted the action of nucleases and contaminating the DNA is between 1 and 3%. The RNA (ribonucleic acid) can be eliminated by degradation by KOH 0.3 M (final concentration) during 16 hours at 36° C., and the DNA is then dialysed and stored as hereinabove mentioned. […]

For experiment [2], the system named is DNA T (matricial DNA separated from sound tissues). In words: synthesis in vitro of DNA on a matrix of check DNA (DNA T) with DNA-polymerase, radioactive acidoprecipitable DNA measured. The experiment is classed as biochemical. The following applies: for replication of DNA-T separated from sound breast tissues: breast tissue DNA, FIG. 6; for replication of DNA taken on check tissues such as lung or liver tissues: lung or liver tissue DNA; for replication of DNA-T (amount of radioactive DNA 3H synthetised): as a function of the amount of substance in the reactional medium (0 to 100 μg in 0.15 ml), 10 minutes at 36° C., FIG. 1, 3, 4.
From the text: as §1, §2
The preparations of DNA T are obtained in the same manner by using as raw material sound tissues separated from various human or animal organs, or from sound cells cultivated "in vitro" in a suitable medium.
as §3, §4, §5, §6, §7

Setting [3] is: between 0,005 and 0,01 ml of acridine orange (0.1 mg/ml) in the medium, FIG. 2.

SMILES strings stand for the structures.

In the case of `C[C@]12CC[C@@H]3c4ccc(O)cc4CC[C@H]3[C@@H]1CC[C@@H]2O` [estradiol], in experiment [1], the “replication of DNA-C separated from cancerous breast tissues” value is given as “very strongly” and the “replication of DNA taken on cancerous tissues such as lung or liver tissues” value was “no effect”. Further, in experiment [2], the “replication of DNA-T separated from sound breast tissues” value is “stimulate weakly” and the “replication of DNA taken on check tissues such as lung or liver tissues” value is reported as “no effect”.

Turning to `CN(C)c1ccc2cc3ccc(N(C)C)cc3nc2c1` [acridine orange], in experiment [1] (0.005 ml acridine orange (0.1 mg/ml) in the medium, compared with DNA-T, FIG. 2), the “replication of DNA-C” value is on record as “stimulation of DNA-C replication is clearly stronger than that of DNA-T”. For the same compound, the “synthesis of DNA-C” value in experiment [1] (setting [3]) is given as “slows down the synthesis”. The “replication of cancerous DNA” value in experiment [1] (high concentrations) is “toxic and inhibit”. The “synthesis of DNA-T” value in experiment [2] (setting [3]) is given as “slows down the synthesis”. The “replication of check DNA” value in experiment [2] (high concentrations) was “toxic and inhibit”.

Consider `c1cc[n+]2c(c1)-c1cccc[n+]1CC2` [Diquat, ethylene-1,1-bipyridilium-2,2-dibromid], for which the “replication of DNA-C (amount of radioactive DNA 3H synthetised)” value in experiment [1] is listed as “inhibition non selective”. Besides, the “replication of DNA-T (amount of radioactive DNA 3H synthetised)” value in experiment [2] is “inhibition non selective”.

As to `C[C@]12CC[C@@H]3c4ccc(O)cc4CC[C@H]3[C@@H]1CCC2=O` [estrone], in experiment [1], the “replication of DNA-C separated from cancerous breast tissues” value is “very strongly” and the “replication of DNA taken on cancerous tissues such as lung or liver tissues” value is “no effect”. For the same compound, in experiment [2], the “replication of DNA-T separated from sound breast tissues” value is given as “stimulate weakly” and the “replication of DNA taken on check tissues such as lung or liver tissues” value was “no effect”.

For the compound `C1CNCCN1` [piperazine], in experiment [1], the “replication of DNA-C (amount of radioactive DNA 3H synthetised)” value is “neutral”. Further, the “replication of DNA-T (amount of radioactive DNA 3H synthetised)” value in experiment [2] is “neutral”.

Consider `O=C(O)c1cccnc1` [Nicotinic acid], for which the “replication of DNA-C (amount of radioactive DNA 3H synthetised)” value in experiment [1] was “neutral”. The “replication of DNA-T (amount of radioactive DNA 3H synthetised)” value in experiment [2] is given as “neutral”.

Source of the values: patent US4264729A, “Method and reagent for detecting cancerigenic and anticancerous substances” (priority 1978, dated 1981).
